From article PMC9364673 (Bioorganic Chemistry, 2022)
Where two headings read alike, the source gives them in different places.

How the values were obtained:
DPP-4 enzyme = DPP-4 enzyme (Homo sapiens, UniProt P27487); test: biochemical
type 2 diabetic rats = test: In vivo antidiabetic effect of a single dose on OGTT in type 2 diabetic; set-up: species or system male Wistar albino rats; conditions: oral doses equivalent to 10 mg/kg, NA: Not active
[1] = Antioxidant activity, DPPH scavenging method; conditions: read-out: IC50 (DPPH scavenging); DPPH 100 μM, 30 min, mean ± SD
RAW264.7 cells = test: MTT cell viability assay on RAW264.7 macrophages; format: cell-based, murine; conditions: Mus musculus, RAW264.7, 24 h, read-out: IC50 (RAW264.7 cells viability)
normal rats = test: In vivo screening of antihyperglycemic effect, oral tolerance test; set-up: species or system male Wistar albino rats; conditions: OGTT, oral administration, NA: Not active
CRP = test: ELISA of CRP release by LPS-stimulated RAW264.7 macrophages; format: cell-based, murine; conditions: LPS (1 μg/mL) stimulated RAW264.7, compound at ¼ IC50, ELISA, compared to LPS
IL-6 = test: ELISA of IL-6 release by LPS-stimulated RAW264.7 macrophages; format: cell-based, murine; conditions: LPS (1 μg/mL) stimulated RAW264.7, compound at ¼ IC50, ELISA, compared to LPS

Sequence of DPP-4 enzyme (P27487 whole entry): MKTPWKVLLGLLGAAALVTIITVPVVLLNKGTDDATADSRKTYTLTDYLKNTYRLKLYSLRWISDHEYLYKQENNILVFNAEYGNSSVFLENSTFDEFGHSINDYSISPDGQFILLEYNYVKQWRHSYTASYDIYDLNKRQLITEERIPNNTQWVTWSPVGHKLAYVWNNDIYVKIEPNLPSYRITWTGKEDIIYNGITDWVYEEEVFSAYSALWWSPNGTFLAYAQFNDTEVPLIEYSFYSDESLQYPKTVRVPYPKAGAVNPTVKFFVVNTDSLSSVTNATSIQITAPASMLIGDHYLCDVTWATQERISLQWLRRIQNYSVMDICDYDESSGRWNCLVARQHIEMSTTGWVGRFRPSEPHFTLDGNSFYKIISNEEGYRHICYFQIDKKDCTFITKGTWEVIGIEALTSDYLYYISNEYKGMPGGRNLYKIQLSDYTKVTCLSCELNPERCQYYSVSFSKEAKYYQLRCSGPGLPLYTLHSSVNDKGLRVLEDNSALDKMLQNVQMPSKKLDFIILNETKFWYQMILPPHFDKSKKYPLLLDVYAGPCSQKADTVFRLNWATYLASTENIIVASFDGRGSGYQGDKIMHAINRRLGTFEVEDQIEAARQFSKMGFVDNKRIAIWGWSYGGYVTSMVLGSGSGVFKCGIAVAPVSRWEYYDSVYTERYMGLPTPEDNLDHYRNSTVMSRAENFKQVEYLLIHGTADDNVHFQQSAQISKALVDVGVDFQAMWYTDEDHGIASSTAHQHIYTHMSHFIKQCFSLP

SMILES	IC50 (DPP-4 enzyme) [nM]	% Reduction in BGL compared to control (type 2 diabetic rats) [%]	IC50 [1] [nM]	% Reduction in BGL compared to control (normal rats) [%]	also measured
Cc1ccc(NC(=S)NS(=O)(=O)C2=CNC3SC(=O)CN3C2=O)cc1 (stereo not shown) [Compound 4b, 3-(4-Methylphenyl)-1-[(2,5-dioxo-8,8a-dihydro-3H-thiazolo[3,2-a]pyrimidin-6-yl)sulfonyl]-thiourea]	63 ± 3	36.59	65900 ± 3400		IC50 (RAW264.7 cells): 241000 ± 69200 nM
O=C(Nc1ccccc1)NS(=O)(=O)C1=CNC2SC(=O)CN2C1=O (stereo not shown) [Compound 4c, 1-[(2,5-Dioxo-8,8a-dihydro-3H-thiazolo[3,2-a]pyrimidin-6-yl)sulfonyl]-3-phenyl-urea]	418 ± 20				
Cc1ccc(NC(=O)NS(=O)(=O)C2=CNC3SC(=O)CN3C2=O)cc1 (stereo not shown) [Compound 4d, 3-(4-Methylphenyl)-1-[(2,5-dioxo-8,8a-dihydro-3H-thiazolo[3,2-a]pyrimidin-6-yl)sulfonyl]-urea]	1320 ± 65				
O=C(O)CSc1ncc(S(=O)(=O)NC(=S)Nc2ccccc2)c(=O)[nH]1 [Compound 5a, 2-[[6-Oxo-5-(phenylcarbamothioylsulfamoyl)-1H-pyrimidin-2-yl]sulfanyl]acetic acid]	577 ± 28				
Cc1ccc(NC(=S)NS(=O)(=O)c2cnc(SCC(=O)O)[nH]c2=O)cc1 [Compound 5b, 2-[[5-(4-Methylphenylcarbamothioylsulfamoyl)-6-oxo-1H-pyrimidin-2-yl]sulfanyl]acetic acid]	634 ± 31			15.89	
O=C(O)CSc1ncc(S(=O)(=O)NC(=O)Nc2ccccc2)c(=O)[nH]1 [Compound 5c, 2-[[6-Oxo-5-(phenylcarbamoylsulfamoyl)-1H-pyrimidin-2-yl]sulfanyl]acetic acid]	290 ± 18				
NNc1ncc(S(=O)(=O)NC(=S)Nc2ccccc2)c(=O)[nH]1 [Compound 6a, 1-[(2-Hydrazino-6-oxo-1H-pyrimidin-5-yl)sulfonyl]-3-phenyl-thiourea]	47 ± 2	23.24	139000 ± 7100	17.70	reduction of the release of CRP (CRP): about 75.5%; decrease in IL-6 levels (IL-6): about 85.9%; IC50 (RAW264.7 cells): 175000 ± 24700 nM
Cc1ccc(NC(=S)NS(=O)(=O)c2cnc(NN)[nH]c2=O)cc1 [Compound 6b, 1-[(2-Hydrazino-6-oxo-1H-pyrimidin-5-yl)sulfonyl]-3-(4-methylphenyl)-thiourea]	71 ± 4	41.00	123000 ± 6300		IC50 (RAW264.7 cells): 189000 ± 26000 nM
NNc1ncc(S(=O)(=O)NC(=O)Nc2ccccc2)c(=O)[nH]1 [Compound 6c, 1-[(2-Hydrazino-6-oxo-1H-pyrimidin-5-yl)sulfonyl]-3-phenyl-urea]	264 ± 13			17.36	
O=c1c(S(=O)(=O)NC(=S)Nc2ccccc2)cnc2[nH]ncn12 [Compound 7a, 1-[(5-oxo-1H-[1], [2], [4]triazolo[4,3-a]pyrimidin-6-yl)sulfonyl]-3-phenyl-thiourea]				17.55	IC50 (DPP-4 enzyme; read-out: DPP-4 IC50, in vitro, 0.01 to 10 µM, mean ± SD): 153 ± 8 nM
O=c1[nH]c(N/N=C/c2ccccc2)ncc1S(=O)(=O)NC(=S)Nc1ccccc1 [Compound 8a, 1-[[2-[(2E)-2-benzylidenehydrazino]-6-oxo-1H-pyrimidin-5-yl]sulfonyl]-3-phenyl-thiourea]	104 ± 5			16.88	
Cc1ccc(NC(=S)NS(=O)(=O)c2cnc(N/N=C/c3ccccc3)[nH]c2=O)cc1 [Compound 8b, 1-[[2-[(2E)-2-benzylidenehydrazino]-6-oxo-1H-pyrimidin-5-yl]sulfonyl]-3-(4-methylphenyl)-thiourea]	75 ± 3	23.94	60800 ± 3100		reduction of the release of CRP (CRP): ~82.6%; decrease in IL-6 levels (IL-6): ~80.2%; IC50 (RAW264.7 cells): 155000 ± 24200 nM
O=C(Nc1ccccc1)NS(=O)(=O)c1cnc(N/N=C/c2ccccc2)[nH]c1=O [Compound 8c, 1-[[2-[(2E)-2-benzylidenehydrazino]-6-oxo-1H-pyrimidin-5-yl]sulfonyl]-3-phenyl-urea]	468 ± 23				
Cc1ccc(S(=O)(=O)NC(=O)NN2CC3CCCC3C2)cc1 (stereo not shown) [Diamicron, reference compound]				15.86	
CC#CCn1c(N2CCC[C@@H](N)C2)nc2c1c(=O)n(Cc1nc(C)c3ccccc3n1)c(=O)n2C [Linagliptin, linagliptin, reference compound]		36.42			
Cc1c(C)c2c(c(C)c1O)CCC(C)(C(=O)O)O2 (stereo not shown) [Trolox, reference compound]			55200 ± 2800		
